# Values joined by “and” are separate entries in the source; they are usually repeats but may differ in a detail not shown here. Equal values may be shown once. Read-outs that look alike come from different tables or passages of the source.
# Experiments:
# [1] = molecular target: TcMCP-1 (Trypanosoma cruzi, UniProt Q6ZXC0); test: Continuous fluorogenic (FRET) TcMCP-1 assay with Abz-LKFK(Dnp)-OH, primary and secondary screening; format: biochemical; set-up: inhibition: dose or concentration left out as unconfirmed; settings: for EDTA control (RFU/sec) Mean: EDTA final concentration 31,25 mM, inhibition control; for TcMCP-1 Hill Slope: four-parameter Hill fit of dose-response curve; for TcMCP-1 2º/1º ratio: secondary (31,5 µM) / primary (25 µM) inhibition; for TcMCP-1 Primary screening Inhibition (%) / inhibition at 25 µM: single inhibitor concentration 25 µM; for TcMCP-1 Secondary screening Inhibition (%): single inhibitor concentration 31,5 µM; for inhibition: read-out: TcMCP-1 Secondary screening Inhibition (%)
# Sequence of TcMCP-1 (Q6ZXC0 entry or part of it): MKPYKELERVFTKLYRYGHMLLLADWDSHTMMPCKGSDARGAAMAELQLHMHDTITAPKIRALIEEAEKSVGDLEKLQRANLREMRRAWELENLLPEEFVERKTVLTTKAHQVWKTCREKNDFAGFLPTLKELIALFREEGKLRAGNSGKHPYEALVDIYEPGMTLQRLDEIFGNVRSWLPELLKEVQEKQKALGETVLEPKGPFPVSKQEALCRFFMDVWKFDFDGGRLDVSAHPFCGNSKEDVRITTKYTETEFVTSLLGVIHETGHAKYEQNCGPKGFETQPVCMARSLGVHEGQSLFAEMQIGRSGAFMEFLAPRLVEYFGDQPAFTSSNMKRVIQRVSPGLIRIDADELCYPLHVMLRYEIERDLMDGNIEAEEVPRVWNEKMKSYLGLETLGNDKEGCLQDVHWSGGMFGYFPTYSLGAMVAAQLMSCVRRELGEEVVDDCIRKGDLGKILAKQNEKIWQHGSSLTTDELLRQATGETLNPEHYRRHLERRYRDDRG
# Procedure: (§1) TcMCP-1 (MEROPS ID: M32.003) and TbMCP-1 were expressed as GST fusion proteins in E. coli BL21 (DE3) Codon Plus and purified as previously described.
# (§2) TbMCP-1 and TcMCP-1 activities were assayed fluorometrically with Abz-RFFK(Dnp)-OH and Abz-LKFK(Dnp)-OH substrates, respectively, in 100 mM MOPS pH 7,2 containing 0,01% Triton X-100. Assays were performed in solid black 384-well plates (final reaction volume ~80 μL) and the hydrolysis of the K(Dnp)-OH group was monitored continuously at 30 °C with a Beckman Coulter DTX 880 Multimode Reader (Radnor, Pennsylvania, USA) using standard 320 nm excitation and 420 nm emission filter set.
# (§3) In all cases, EDTA (final concentration 31,25 mM) was used as positive inhibition control.
# (§4) Then, 40 μL of 100 mM MOPS, 0,01% Triton X-100 pH 7,2 containing TbMCP-1 (2,50 nM) or TcMCP-1 (0,34 nM) were added to each well, plates were homogenized (30 seg, orbital, medium intensity) and each well subjected to a single autofluorescence read (ex/em = 320/420 nm). Plates were incubated in darkness for 15 min at 30 °C and then 40 μL of Abz-RFFK(Dnp)-OH (4 μM) or Abz-LKFK(Dnp)-OH (0,8 μM) in assay buffer were added to each well to start the reaction. After homogenization (30 seg, orbital, medium intensity), the fluorescence of the Abz group (ortho-aminobenzoic acid) (ex/em = 320/420 nm) was acquired kinetically for each well (8 read cycles, one cycle every 300 seconds). Considering our previous experiences, the auto-fluorescent cut-off was arbitrarily set at 2x10^5 RFU to discard highly interfering compounds. All compounds were assayed in singlet (without replicates) due to the limited availability of stocks.
# (§5) Raw screening measurements were used to determine the slope (dF/dt) of progression curves by linear regression for control and non-interfering compound wells. In the case of control-dependent hit selection criteria, percent inhibition percentage (%Inh) was calculated for each compound according to the following equation: Inh=100∙[1−(dF/dt^WELL−μ^C−)/(μ^C+−μ^C−)] (1) where dF/dt^WELL represents the slope of each compound well and μ^C+ and μ^C− the average of MCP (no-inhibition) and substrate (no-enzyme) controls, respectively.
# (§6) Compounds selected from primary screening were re-tested in a dose-response manner (final concentration ranging from 7,5 to 62,5 μM) using identical assay conditions. To avoid any positional and/or association bias, we randomly defined the row position for each compound. One μL of compounds stock (10 mM in DMSO) and EDTA (31,25 mM) were added to the first well of column 1, followed by addition of 40 μL of 100 mM MOPS, 0,01% Triton X-100 pH 7,2 buffer. After addition of 20 μL of the same buffer to subsequent wells of the plate, 22 serial 2-fold dilutions were made horizontally. The last two positions of every row were used, alternatively, for C^+ and C^− controls to reduce any positional and/or association bias. Then, 20 μL of activity buffer containing TbMCP-1 or TcMCP-1 were added to each well, except for those corresponding to C^−; completed with 20 μL of activity buffer. After homogenization, 15 minutes of incubation at 30°C and autofluorescence measurement, the substrate (in activity buffer) was added to the previous mix. Data collection and processing were performed exactly as described above. Percentage of M32 MCPs residual activity was calculated for each condition according to the following equation: %Res.Act^MCP=100∙[(dF/dt^WELL−μ^C−)/(μ^C+−μ^C−)] (2) where dF/dt^WELL represents the slope of each compound well and μ^C+ and μ^C− the average of MCP (no-inhibition) and substrate (no-enzyme) controls, respectively.
# [2] = molecular target: TbMCP-1 (Trypanosoma brucei, UniProt Q386R0); test: Continuous fluorogenic (FRET) TbMCP-1 assay with Abz-RFFK(Dnp)-OH, primary and secondary screening; format: biochemical; settings: for EDTA control (RFU/sec) Mean: EDTA final concentration 31,25 mM, inhibition control; for TbMCP-1 2º/1º ratio: secondary (31,5 µM) / primary (25 µM) inhibition; for TbMCP-1 Secondary screening Inhibition (%) / inhibition: single inhibitor concentration 31,5 µM; for TbMCP-1 Hill Slope: four-parameter Hill fit of dose-response curve; for inhibition at 25 µM: read-out: TbMCP-1 Primary screening Inhibition (%)
# Sequence of TbMCP-1 (Q386R0 entry or part of it): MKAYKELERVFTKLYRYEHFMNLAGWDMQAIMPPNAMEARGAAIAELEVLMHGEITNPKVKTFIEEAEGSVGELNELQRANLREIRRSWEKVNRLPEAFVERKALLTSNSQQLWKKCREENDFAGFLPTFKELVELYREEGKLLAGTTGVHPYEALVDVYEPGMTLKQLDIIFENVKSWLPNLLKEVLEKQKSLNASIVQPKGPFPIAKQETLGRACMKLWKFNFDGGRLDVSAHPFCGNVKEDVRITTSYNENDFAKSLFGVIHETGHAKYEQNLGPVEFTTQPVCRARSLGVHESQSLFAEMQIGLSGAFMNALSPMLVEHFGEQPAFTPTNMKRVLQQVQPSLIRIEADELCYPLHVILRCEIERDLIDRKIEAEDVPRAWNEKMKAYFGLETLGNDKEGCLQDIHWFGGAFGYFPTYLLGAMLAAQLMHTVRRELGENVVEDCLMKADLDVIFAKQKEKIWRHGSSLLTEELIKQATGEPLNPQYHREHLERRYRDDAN
# Procedure: as §1, §2, §3, §4, §5
# as §6, with “To” for “Compounds selected from primary screening were re-tested in a dose-response manner (final concentration ranging from 7,5 to 62,5 μM) using identical assay conditions. To”
# [3] = secondary screening, two-fold dilutions 7,5 pM to 62,5 μM, KM/[S] ~ 1, no replicates
# [4] = single inhibitor concentration 25 µM
SMILES,IC50 [1] [µM],TcMCP-1 Hill Slope [1],TcMCP-1 2º/1º ratio [1],"IC50 [1, 3]",TcMCP-1 Primary screening Inhibition (%) [1],TcMCP-1 Secondary screening Inhibition (%) [1],TbMCP-1 2º/1º ratio [2],TbMCP-1 Hill Slope [2],"inhibition at 25 µM [2, 4] [%]",inhibition [2] [%],also measured
"O=C(O)CN(CCN(CC(=O)O)CC(=O)O)CC(=O)O [EDTA, reference compound]",,,,,,,,,,,"EDTA control (RFU/sec) Mean ([1]; Plate 1): 1,28 RFU/sec; EDTA control (RFU/sec) Mean ([1]; Plate 2): 2,32 RFU/sec; EDTA control (RFU/sec) Mean ([2]; Plate 1): 0,13 RFU/sec; EDTA control (RFU/sec) Mean ([2]; Plate 2): 0,39 RFU/sec"
O=C(Nc1nc2cc(Cl)ccc2o1)c1cccc(Cl)c1 [TCMDC-143172],11.2,"-2,825","1,30",~10 µM,"65,01%","84,56%","-0,04",,,,"TbMCP-1 Primary screening Inhibition (%) ([2]; single inhibitor concentration 25 µM, 25 µM): 42,44%; TbMCP-1 Secondary screening Inhibition (%) [2]: -1,57%"
O=c1[nH]c(C=Cc2cccc(OCCOc3ccccc3)c2)nc(O)c1[N+](=O)[O-] [TCMDC-143209],4180,"-1,019","1,09",≤ 10 µM,,,"0,86","-1,2405",50,42.9,inhibition [1]: 92.5%; inhibition at 25 µM [1]: 85%; IC50 [2]: 28.3 µM
CCn1c(-c2nonc2N)nc2c(C(C)O)ncc(OC(CN)c3ccccc3)c21 (stereo not shown) [TCMDC-143323],,,,,,,"1,00","-0,894",87.2,87,inhibition on TcMCP-1 [1]: < 30%
Cl.NS(=O)(=O)c1ccc(Nc2ncc3cccc(OC4CCNCC4)c3n2)cc1 [TCMDC-143382],20.6,"-0,7277","1,18",,"53,63%","63,12%","0,99","-0,7258",,,"IC50 [2]: 22.6 µM; TbMCP-1 Primary screening Inhibition (%) [2, 4]: 57,82%; TbMCP-1 Secondary screening Inhibition (%) [2]: 57,14%"
CS(=O)(=O)c1cccc(CNC(=O)c2cncc(N3CCN(c4ccc(F)cc4)CC3)c2)c1 [TCMDC-143385],,"-0,9614","1,88",≤ 10 µM and ~10 µM,,,,,,,inhibition [1]: 80.8%; inhibition at 25 µM [1]: 42.9%; inhibition at 25 µM [2]: < 40%
O=C(c1cccc(Cl)c1Cl)N1CCn2c1nc(-c1ccncc1)cc2=O [TCMDC-143409],,,,,,,"1,13","-1,2409",68.9,78,"inhibition on TcMCP-1 [1]: < 30%; IC50 [2, 3]: 10.4 µM"
Fc1ccccc1N1CC2CCN(c3cccnc3)CC2C1 (stereo not shown) [TCMDC-143422],1.52,"-1,038","1,19",≤ 10 µM,,,"0,99","-1,206",81.1,80.2,"inhibition [1]: 93.9%; inhibition at 25 µM [1]: 78.8%; IC50 [2, 3]: 10.5 µM"
CCOC(=O)c1cn[nH]c1S(=O)(=O)N1CCC1c1ccccc1 (stereo not shown) [TCMDC-143456],,"-0,9597","1,10",≤ 10 µM,,,"1,04","-1,247",66.2,69,inhibition [1]: 97.7%; inhibition at 25 µM [1]: 89.1%; IC50 [2]: 14.7 µM
COc1cc(Nc2nccc(Nc3onc(C)c3C)n2)cc(S(=O)(=O)C2CCOCC2)c1 [TCMDC-143462],15.5,"-0,9436","1,40",,"43,06%","60,29%","0,13",,,,"TbMCP-1 Primary screening Inhibition (%) [2, 4]: 47,90%; TbMCP-1 Secondary screening Inhibition (%) [2]: 6,29%"
COc1ccc(S(=O)(=O)Nc2ccc(CN3CCN(C(=O)c4cccc(C#N)c4)CC3)cc2)cc1.O=C(O)C(F)(F)F [TCMDC-143496],34.9,"-0,822","1,09",,"41,52%","45,37%",,,,,
O=C(O)C(F)(F)F.O=C(O)C(F)(F)F.O=C1COC(c2ccccc2)(c2ccccc2)CN1C1CCN(Cc2ccc(-n3ccnc3)cc2)CC1 [TCMDC-143543],> 60,,"0,72",,"43,40%","31,11%",,,,,
COc1cccc(S(=O)(=O)Nc2ccc3c(c2)CC(N2CCC(NC(=O)C4CC4)CC2)C3)c1 (stereo not shown) [TCMDC-143583],,,"-0,15",,"77,30%","-11,25%",,,,,
CC(C)Oc1ccc(C(=O)Nc2ccc(N3CCOCC3)c(Cl)c2)cc1 [TCMDC-143592],27.9,"-0,8919","1,03",,"56,55%","58,11%",,,,,
